Assay results as given in patent US6407122B1, “Amino-benzothiazole derivatives” (Pharmacia & Upjohn S.p.A., priority 1997, dated 2002).
pEC50: −log10 of the molar value.

System: mixed cortical neuronal cultures
Experiment: Neuroprotection against NMDA (500 μM) toxicity in mixed cortical neuronal cultures, Trypan Blue Dye Exclusion Test
Assay type: cell-based
Conditions: Rattus norvegicus, Cortical neurone; cultured cortical neurons from foetal rats; 3 min preincubation, 20 min exposure to NMDA 500 μM, viability after 24 hours; mean of at least 3 different experiments; read-out: EC50 (neuroprotective effect)
Description: The efficacy of the compounds of the invention as neuroprotective agents was evaluated in mixed cortical neuronal cultures, following the method reported below.
Mixed cortical neuronal cultures from foetal rats at 16 days of gestation were prepared as described by Choi (j. Neur. Sci. 7: 357-368, 1987). Briefly dissociated cells were plated on poly-L-lysine coated multiwell plates at density of 1*10^5 cells/cm^2 in MEM with Earle's salts supplemented with 21 mM D-glucose, 2 mM L-glutamine, 50 μg/ml Streptomicin, 50 IU Penicillin, 10% Foetal Calf Serum and 10% Horse Serum. Cultures were kept at 37° C., 5% CO2 and survived about 5 weeks. After 7 days in vitro, astrocites proliferation was inhibited by adding 10 μM Cytosine Arabinoside for 48 hours; the medium was subsequently substituted twice a week with a fresh medium without foetal call serum (Hatley, J. Pharm. and Exp. Ther. 250 (II);752-758, 1989).
Only nature cortical cultures, from 14 DIV on, were used for the study. Experiments were performed at 25° C. as follows: cells were washed once with a Locke's buffer, (128 mM NaCl, […], 1.2 mM Na2HPO4, 2.7 mM CaCl2, 20 mM Hepes and 10 mM D-glucose) pH=7.4, then preincubated with the test compounds for 3 min. followed by a 20 min. exposure to N-methyl-D-aspartate (NMDA) (500 μM).
The incubation was stopped by removing Locke's buffer and substituting the conditioned medium. […]

Structure (SMILES)	pEC50
Nc1nc2ccc(CCN3CCC(Cc4ccccc4)CC3)cc2s1 [Example 15, 1-(2-Amino-benzothiazol-6-yl)-2-(4-benzyl-piperidin-1-yl)-ethane]	6.19
OC(CN1CCC(Cc2ccc(F)cc2)CC1)c1ccc(Cl)cc1 (centres unmarked) [Eliprodil]	5.65
